Experimental data taken from patent publication US12181473B2 (priority 2017, dated 2024).

System: fumonisin B1 monoclonal antibody secreted from the hybridoma cell line Fm7A11
Format: binding, BALB/c mice

Row | Structure (SMILES) | sensitivity (IC50, concentration of competitive antigen at 50% suppression ratio) | Cross rates of response
1 | CCCC[C@@H](C)[C@@H](OC(=O)C[C@@H](CC(=O)O)C(=O)O)[C@H](C[C@@H](C)C[C@H](O)CCCC[C@@H](O)C[C@H](O)[C@H](C)N)OC(=O)C[C@@H](CC(=O)O)C(=O)O [fumonisin B1] | 0.32 ng/mL | –
2 | CCCC[C@@H](C)[C@@H](OC(=O)C[C@@H](CC(=O)O)C(=O)O)[C@H](C[C@@H](C)CCCCCC[C@@H](O)C[C@H](O)[C@H](C)N)OC(=O)C[C@@H](CC(=O)O)C(=O)O [fumonisin B2] | – | 4.3%
3 | CCCC[C@@H](C)[C@@H](OC(=O)C[C@@H](CC(=O)O)C(=O)O)[C@H](C[C@@H](C)C[C@H](O)CCCCCC[C@H](O)[C@H](C)N)OC(=O)C[C@@H](CC(=O)O)C(=O)O [fumonisin B3] | – | 12.8%
